From US10544143B2, “4-azaindole compounds” (BRISTOL-MYERS SQUIBB COMPANY, priority 2017, dated 2020)
Read-outs that look alike come from different tables or passages of the source.

How the values were obtained:
[1] = target: human TLR9 (Homo sapiens (Human), UniProt Q9NR96); assay: TLR9 inhibition reporter assay (HEK-Blue SEAP); conditions: ODN2006 5 nM;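 further: SEAP driven by an IFN-β minimal promoter with NF-κB and AP-1 sites, read after 22 h, compounds dosed 0.05 nM–50 µM, inhibition scaled between agonist plus DMSO and reference-inhibitor wells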
Chain of human TLR9 (Q9NR96 26-1032): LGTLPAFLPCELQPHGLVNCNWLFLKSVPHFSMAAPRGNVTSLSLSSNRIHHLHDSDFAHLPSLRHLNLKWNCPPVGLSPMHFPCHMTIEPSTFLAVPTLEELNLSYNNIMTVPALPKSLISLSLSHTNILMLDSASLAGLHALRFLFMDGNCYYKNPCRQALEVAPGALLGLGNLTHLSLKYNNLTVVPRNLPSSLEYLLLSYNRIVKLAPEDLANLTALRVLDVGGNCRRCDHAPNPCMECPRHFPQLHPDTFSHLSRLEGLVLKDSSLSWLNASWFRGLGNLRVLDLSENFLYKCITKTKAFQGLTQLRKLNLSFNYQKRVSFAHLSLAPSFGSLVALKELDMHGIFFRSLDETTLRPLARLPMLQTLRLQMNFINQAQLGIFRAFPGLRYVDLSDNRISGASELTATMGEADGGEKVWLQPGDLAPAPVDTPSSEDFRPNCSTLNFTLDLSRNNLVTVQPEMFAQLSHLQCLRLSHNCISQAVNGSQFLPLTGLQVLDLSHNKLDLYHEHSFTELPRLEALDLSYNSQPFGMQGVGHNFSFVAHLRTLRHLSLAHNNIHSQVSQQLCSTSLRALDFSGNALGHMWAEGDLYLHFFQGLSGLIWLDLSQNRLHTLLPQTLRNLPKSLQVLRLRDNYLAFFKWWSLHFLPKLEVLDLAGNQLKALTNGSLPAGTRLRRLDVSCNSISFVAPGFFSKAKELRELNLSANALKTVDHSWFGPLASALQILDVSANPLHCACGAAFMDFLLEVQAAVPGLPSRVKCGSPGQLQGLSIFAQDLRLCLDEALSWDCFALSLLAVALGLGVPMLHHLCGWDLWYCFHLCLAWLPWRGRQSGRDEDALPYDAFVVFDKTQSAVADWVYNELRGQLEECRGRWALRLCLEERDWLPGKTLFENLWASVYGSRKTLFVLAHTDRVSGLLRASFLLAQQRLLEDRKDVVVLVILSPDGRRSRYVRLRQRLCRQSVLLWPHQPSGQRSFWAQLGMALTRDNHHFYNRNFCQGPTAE

[2] = target: human TLR8 (Homo sapiens (Human), UniProt Q9NR97); assay: TLR8 inhibition reporter assay (HEK-Blue SEAP); conditions: R848 15.9 μM;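 further: SEAP driven by IFN-β minimal promoter carrying NF-κB and AP-1 sites, compounds dosed 0.05 nM to 50 µM for 22 h, inhibition scaled between agonist-plus-DMSO and reference-inhibitor wells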
Chain of human TLR8 (Q9NR97 27-1041): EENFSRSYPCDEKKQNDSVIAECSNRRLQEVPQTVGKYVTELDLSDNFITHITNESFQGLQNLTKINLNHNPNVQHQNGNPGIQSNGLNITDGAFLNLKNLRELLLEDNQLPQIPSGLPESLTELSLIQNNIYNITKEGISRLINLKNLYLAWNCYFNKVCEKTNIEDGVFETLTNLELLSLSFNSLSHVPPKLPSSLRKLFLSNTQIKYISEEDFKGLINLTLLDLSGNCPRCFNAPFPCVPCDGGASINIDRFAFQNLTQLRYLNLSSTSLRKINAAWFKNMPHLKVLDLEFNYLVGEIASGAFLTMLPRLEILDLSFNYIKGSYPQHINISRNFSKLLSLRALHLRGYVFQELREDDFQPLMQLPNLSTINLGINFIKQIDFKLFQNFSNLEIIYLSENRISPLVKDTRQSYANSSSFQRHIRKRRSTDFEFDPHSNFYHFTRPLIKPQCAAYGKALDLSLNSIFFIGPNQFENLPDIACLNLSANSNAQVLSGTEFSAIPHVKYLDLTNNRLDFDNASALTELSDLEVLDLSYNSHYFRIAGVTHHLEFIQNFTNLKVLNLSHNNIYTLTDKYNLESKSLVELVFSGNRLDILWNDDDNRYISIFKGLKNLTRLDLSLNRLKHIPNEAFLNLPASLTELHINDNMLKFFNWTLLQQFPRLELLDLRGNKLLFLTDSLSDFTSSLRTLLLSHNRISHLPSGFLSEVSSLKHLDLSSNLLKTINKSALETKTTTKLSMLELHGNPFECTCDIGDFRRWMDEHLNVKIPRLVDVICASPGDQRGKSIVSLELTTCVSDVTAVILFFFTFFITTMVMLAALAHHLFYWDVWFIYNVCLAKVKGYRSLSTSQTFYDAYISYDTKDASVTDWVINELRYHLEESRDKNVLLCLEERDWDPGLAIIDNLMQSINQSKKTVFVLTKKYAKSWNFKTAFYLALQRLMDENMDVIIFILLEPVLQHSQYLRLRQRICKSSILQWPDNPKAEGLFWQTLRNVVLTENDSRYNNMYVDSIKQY

[3] = target: human TLR7 (Homo sapiens (Human), UniProt Q9NYK1); assay: TLR7 inhibition reporter assay (HEK-Blue SEAP); assay type: cell-based; conditions: HEK-Blue human TLR7 cells, gardiquimod 7.5 μM
Chain of human TLR7 (Q9NYK1 27-1049): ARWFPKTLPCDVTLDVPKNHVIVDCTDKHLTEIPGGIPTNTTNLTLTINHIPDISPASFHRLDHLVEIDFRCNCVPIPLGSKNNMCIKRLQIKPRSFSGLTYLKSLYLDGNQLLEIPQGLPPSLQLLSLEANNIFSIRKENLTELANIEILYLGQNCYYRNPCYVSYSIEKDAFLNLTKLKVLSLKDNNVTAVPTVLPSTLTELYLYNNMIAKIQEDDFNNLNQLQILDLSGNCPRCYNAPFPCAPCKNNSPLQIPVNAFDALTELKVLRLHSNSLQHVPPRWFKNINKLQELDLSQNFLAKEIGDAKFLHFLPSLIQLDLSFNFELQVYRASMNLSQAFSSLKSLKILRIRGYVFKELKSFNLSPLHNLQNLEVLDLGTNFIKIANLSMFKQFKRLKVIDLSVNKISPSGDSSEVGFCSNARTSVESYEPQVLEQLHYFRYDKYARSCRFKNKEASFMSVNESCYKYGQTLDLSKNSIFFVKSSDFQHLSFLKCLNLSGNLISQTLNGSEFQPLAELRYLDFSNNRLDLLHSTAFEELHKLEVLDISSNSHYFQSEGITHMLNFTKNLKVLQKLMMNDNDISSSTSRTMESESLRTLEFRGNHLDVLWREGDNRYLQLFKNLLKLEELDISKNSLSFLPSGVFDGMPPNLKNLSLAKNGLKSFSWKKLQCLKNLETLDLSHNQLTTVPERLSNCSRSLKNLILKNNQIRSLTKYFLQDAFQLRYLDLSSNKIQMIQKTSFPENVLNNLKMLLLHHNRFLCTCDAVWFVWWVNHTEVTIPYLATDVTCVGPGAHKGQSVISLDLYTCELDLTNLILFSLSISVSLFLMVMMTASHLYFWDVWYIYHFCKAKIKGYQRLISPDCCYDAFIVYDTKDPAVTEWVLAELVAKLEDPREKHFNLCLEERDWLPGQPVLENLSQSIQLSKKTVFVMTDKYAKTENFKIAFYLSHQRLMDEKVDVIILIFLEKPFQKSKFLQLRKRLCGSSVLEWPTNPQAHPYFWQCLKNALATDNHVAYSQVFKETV

[4] = read-out: TLR9 IC50, HEK-Blue human TLR9 cells
[5] = read-out: TLR8 IC50, HEK-Blue human TLR8 cells

| Structure (SMILES) | IC50 [1, 4] [µM] | IC50 [2, 5] [nM] | IC50 [3] [nM] | IC50 ([1]; TLR9 IC50, HEK-Blue human TLR9 cells) [µM] | IC50 ([2]; TLR8 IC50, HEK-Blue human TLR8 cells) [nM] |
| --- | --- | --- | --- | --- | --- |
| Cc1c(-c2[nH]c3ccc(N4CCN(CC(=O)N(C)C)C[C@@H]4C)nc3c2C(C)C)cn2ncnc2c1C [Example 803] | 39.7 | 4 | 4.3 | – | – |
| Cc1c(-c2[nH]c3ccc(N4CCN(CCC(N)=O)C[C@@H]4C)nc3c2C(C)C)cn2ncnc2c1C [Example 804] | 18.1 | 0.56 | 1.2 | – | – |
| Cc1c(-c2[nH]c3ccc(N4CCN(CCCS(C)(=O)=O)C[C@@H]4C)nc3c2C(C)C)cn2ncnc2c1C [Example 805] | 24.2 | 0.57 | 2.1 | – | – |
| Cc1c(-c2[nH]c3ccc(N4CCN(CCCS(C)(=O)=O)C[C@H]4C)nc3c2C(C)C)cn2ncnc2c1C [Example 806] | 29.4 | 1.1 | 1.1 | – | – |
| Cc1c(-c2[nH]c3ccc(N4CCN(CCC(N)=O)C[C@H]4C)nc3c2C(C)C)cn2ncnc2c1C [Example 807] | 16.3 | 1.3 | 0.95 | – | – |
| Cc1c(-c2[nH]c3ccc(N4CCN(C(=O)CN(C)C)C[C@H]4C)nc3c2C(C)C)cn2ncnc2c1C [Example 808] | 8.95 | 1.4 | 0.19 | – | – |
| Cc1c(-c2[nH]c3ccc(N4CCN(CC(N)=O)C[C@@H]4C)nc3c2C(C)C)cn2ncnc2c1C [Example 809] | 36 | 3.1 | 2.2 | – | – |
| Cc1c(-c2[nH]c3ccc(N4CCN(CC#N)C[C@@H]4C)nc3c2C(C)C)cn2ncnc2c1C [Example 810] | 7.36 | 0.63 | 0.64 | – | – |
| Cc1c(-c2[nH]c3ccc(N4CCN(C(=O)CCN(C)C)C[C@@H]4C)nc3c2C(C)C)cn2ncnc2c1C [Example 811] | 5.6 | 0.59 | 0.36 | – | – |
| CNC(=O)CN1CCN(c2ccc3[nH]c(-c4cn5ncnc5c(C)c4C)c(C(C)C)c3n2)[C@@H](C)C1 [Example 812] | > 50 | 3.6 | 2.2 | – | – |
| Cc1c(-c2[nH]c3ccc(N4CCN(C5COC5)C[C@@H]4C)nc3c2C(C)C)cn2ncnc2c1C [Example 813] | > 50 | 9.1 | 3.7 | – | – |
| Cc1c(-c2[nH]c3ccc(N4CCN(C5CCOC5)C[C@@H]4C)nc3c2C(C)C)cn2ncnc2c1C (stereo partly drawn) [Example 814] | > 50 | 2.3 | 1.9 | – | – |
| Cc1c(-c2[nH]c3ccc(N4CCN(C5CCS(=O)(=O)CC5)C[C@@H]4C)nc3c2C(C)C)cn2ncnc2c1C [Example 815] | > 50 | 1.4 | 1.8 | – | – |
| Cc1c(-c2[nH]c3ccc(N4CCN(C(C)C)C[C@@H]4C)nc3c2C(C)C)cn2ncnc2c1C [Example 816] | 8.72 | 1.7 | 1.7 | – | – |
| Cc1c(-c2[nH]c3ccc(N4CCN(CCS(C)(=O)=O)C[C@@H]4C)nc3c2C(C)C)cn2ncnc2c1C [Example 817] | > 50 | 2.9 | 2.1 | – | – |
| CNC(=O)CCN1CCN(c2ccc3[nH]c(-c4cn5ncnc5c(C)c4C)c(C(C)C)c3n2)[C@@H](C)C1 [Example 818] | 12.8 | 0.43 | 0.78 | – | – |
| Cc1c(-c2[nH]c3ccc(N4CCN(C5CCOCC5)C[C@@H]4C)nc3c2C(C)C)cn2ncnc2c1C [Example 820] | 9.4 | 2 | 2.7 | – | – |
| Cc1c(-c2[nH]c3ccc(N4[C@@H](C)CNC[C@@H]4C)nc3c2C(C)C)cn2ncnc2c1C [Example 821] | 6.69 | 1.3 | 1.3 | – | – |
| Cc1c(-c2[nH]c3ccc(N4CCN[C@H](C)C4)nc3c2C(C)C)cn2ncnc2c1C [Example 822] | 6.91 | 0.24 | 1.1 | – | – |
| Cc1c(-c2[nH]c3ccc(N4CCN(C(=O)CCN(C)C)C[C@H]4C)nc3c2C(C)C)cn2ncnc2c1C [Example 823] | 6.93 | 1.2 | 0.49 | – | – |
| Cc1c(-c2[nH]c3ccc(N4CCN(C(=O)CN5CCC5)C[C@@H]4C)nc3c2C(C)C)cn2ncnc2c1C [Example 824] | 5.79 | 2.1 | 1.6 | – | – |
| Cc1c(-c2[nH]c3ccc(N4CCN(C(=O)CN5CCCC5)C[C@@H]4C)nc3c2C(C)C)cn2ncnc2c1C [Example 825] | 6.28 | 1.1 | 0.53 | – | – |
| Cc1c(-c2[nH]c3ccc(N4CCN(C(=O)CNC5CC5)C[C@@H]4C)nc3c2C(C)C)cn2ncnc2c1C [Example 826] | 15.7 | 1 | 0.7 | – | – |
| Cc1c(-c2[nH]c3ccc(N4CCN(C(=O)CNC(C)C)C[C@@H]4C)nc3c2C(C)C)cn2ncnc2c1C [Example 827] | 4.85 | 0.34 | 0.46 | – | – |
| Cc1c(-c2[nH]c3ccc(N4CCN(C(=O)C5CN(C)C5)CC4)nc3c2C(C)C)cn2ncnc2c1C [Example 828] | 7.16 | 1.4 | 0.88 | – | – |

| Structure (SMILES) | IC50 [1, 4] [µM] | IC50 [2, 5] [nM] | IC50 [3] [nM] | IC50 ([1]; TLR9 IC50, HEK-Blue human TLR9 cells) [µM] | IC50 ([2]; TLR8 IC50, HEK-Blue human TLR8 cells) [nM] |
| --- | --- | --- | --- | --- | --- |
| Cc1c(-c2[nH]c3ccc(N4CCN(C(=O)C5CN(C)C5)C[C@@H]4C)nc3c2C(C)C)cn2ncnc2c1C [Example 829] | 17.3 | 12 | 3.7 | – | – |
| CNCC(=O)N1CCN(c2ccc3[nH]c(-c4cn5ncnc5c(C)c4C)c(C(C)C)c3n2)CC1 [Example 830] | 7.44 | 0.63 | 0.62 | – | – |
| Cc1c(-c2[nH]c3ccc(N4CCN(C(=O)CN)CC4)nc3c2C(C)C)cn2ncnc2c1C [Example 832] | 16.8 | 2.3 | 4 | – | – |
| Cc1c(-c2[nH]c3ccc(N4CCN(C(C)C)C[C@H]4C)nc3c2C(C)C)cn2ncnc2c1C [Example 833] | 9.78 | 4.9 | 1.9 | – | – |
| Cc1c(-c2[nH]c3ccc(N4CCN(C(=O)CN5CCC5)C[C@H]4C)nc3c2C(C)C)cn2ncnc2c1C [Example 834] | 4.37 | 2.5 | 0.46 | – | – |
| Cc1c(-c2[nH]c3ccc(N4CCN(C(=O)CN5CCCC5)C[C@H]4C)nc3c2C(C)C)cn2ncnc2c1C [Example 835] | 5.56 | 4.1 | 0.7 | – | – |
| Cc1c(-c2[nH]c3ccc(N4CCN(C(=O)CNC5CC5)C[C@H]4C)nc3c2C(C)C)cn2ncnc2c1C [Example 836] | 16.4 | 4.1 | 2.4 | – | – |
| Cc1c(-c2[nH]c3ccc(N4CCN(C(=O)CNC(C)C)C[C@H]4C)nc3c2C(C)C)cn2ncnc2c1C [Example 837] | 7.82 | 1.6 | 0.7 | – | – |
| [2H]C([2H])([2H])N(CC(=O)N1CCN(c2ccc3[nH]c(-c4cn5ncnc5c(C)c4C)c(C(C)C)c3n2)[C@H](C)C1)C([2H])([2H])[2H] [Example 838] | – | – | 0.6 | 9.89 | 3.5 |
| Cc1c(-c2[nH]c3ccc(N4C[C@H](C)N(C(=O)CN(C)C)C[C@H]4C)nc3c2C(C)C)cn2ncnc2c1C [Example 839] | 7.87 | 3.2 | 0.37 | – | – |
| Cc1c(-c2[nH]c3ccc(N4C[C@H](C)N(C(=O)CCN(C)C)C[C@H]4C)nc3c2C(C)C)cn2ncnc2c1C [Example 840] | 7.4 | 1.5 | 0.38 | – | – |
| Cc1c(-c2[nH]c3ccc(N4C[C@H](C)N(C(C)C)C[C@H]4C)nc3c2C(C)C)cn2ncnc2c1C [Example 841] | 14.3 | 28 | 5.6 | – | – |
| Cc1c(-c2[nH]c3ccc(N4C[C@@H](C)N(C(=O)CN(C)C)C[C@@H]4C)nc3c2C(C)C)cn2ncnc2c1C [Example 842] | 6.92 | 0.47 | 0.38 | – | – |
| Cc1c(-c2[nH]c3ccc(N4C[C@@H](C)N(C(=O)CCN(C)C)C[C@@H]4C)nc3c2C(C)C)cn2ncnc2c1C [Example 843] | 5.48 | 1.4 | 0.52 | – | – |
| Cc1c(-c2[nH]c3ccc(N4C[C@@H](C)N(C(C)C)C[C@@H]4C)nc3c2C(C)C)cn2ncnc2c1C [Example 844] | 8.82 | 11 | 2 | – | – |
| Cc1c(-c2[nH]c3ccc(N4C[C@H](C)N(CCCS(C)(=O)=O)C[C@H]4C)nc3c2C(C)C)cn2ncnc2c1C [Example 845] | 21.3 | 14 | 7.2 | – | – |
| Cc1c(-c2[nH]c3ccc(N4C[C@H](C)N(CCC(N)=O)C[C@H]4C)nc3c2C(C)C)cn2ncnc2c1C [Example 847] | 22.5 | 8.3 | 4.9 | – | – |
| Cc1c(-c2[nH]c3ccc(N4C[C@@H](C)N(CCC(N)=O)C[C@@H]4C)nc3c2C(C)C)cn2ncnc2c1C [Example 848] | 17.5 | 2.2 | 1.2 | – | – |
| Cc1c(-c2[nH]c3ccc(N4CCN(C(=O)CCN(C)C)[C@H](C)C4)nc3c2C(C)C)cn2ncnc2c1C [Example 850] | 6.54 | 1.6 | 0.72 | – | – |
| Cc1c(-c2[nH]c3ccc(N4CCN(C(C)C)[C@H](C)C4)nc3c2C(C)C)cn2ncnc2c1C [Example 851] | 9.98 | 2.2 | 5.9 | – | – |
| Cc1c(-c2[nH]c3ccc(N4CCN(CCC(N)=O)[C@H](C)C4)nc3c2C(C)C)cn2ncnc2c1C [Example 852] | 16.2 | 0.82 | 5.2 | – | – |
| Cc1c(-c2[nH]c3ccc(N4CCN(C(=O)[C@H](C)N(C)C)CC4)nc3c2C(C)C)cn2ncnc2c1C [Example 853] | 9.57 | 0.66 | 0.51 | – | – |
| Cc1c(-c2[nH]c3ccc(N4CCN(C(=O)C5(N(C)C)CC5)CC4)nc3c2C(C)C)cn2ncnc2c1C [Example 854] | 32.3 | 5 | 11 | – | – |
| Cc1c(-c2[nH]c3ccc(N4CCN(CCCS(C)(=O)=O)[C@H](C)C4)nc3c2C(C)C)cn2ncnc2c1C [Example 856] | 27.1 | 0.46 | 7.3 | – | – |
